Source: patent publication US20240018102A1, “COMPOUNDS AND COMPOSITIONS FOR TREATING CONDITIONS ASSOCIATED WITH LPA RECEPTOR ACTIVITY” (Lhotse Bio, Inc., priority 2020, published 2024)
pIC50: −log10 of the molar value.

Target: T1, human LPA1 (Homo sapiens, UniProt Q92633)
T1 construct: expressed in transfected cells; host or cells: CHO-K1
Test: In vitro LPA1 functional antagonist assay (calcium mobilization, FLIPR)
Format: cell-based
Conditions: CHO-K1 cells overexpressing human LPA1; Oleoyl LPA challenge; calcium mobilization on FLIPR Tetra
Protocol: In Vitro LPA1 Functional Antagonist Assay
CHO-K1 cells overexpressing human LPA1 were seeded in a total volume of 20 μL into black-walled, clear-bottom, Poly-D-lysine coated 384-well microplates and incubated at 37° C. for the appropriate time prior to testing. Assays were performed in 1× Dye Loading Buffer consisting of 1× Dye, 1× Additive A and 2.5 mM Probenecid in HBSS/20 mM Hepes. Probenicid was prepared fresh. Cells were loaded with dye prior to testing. Media was aspirated from cells and replaced with […] Dye Loading Buffer. Cells were incubated for 30-60 minutes at 37° C. After dye loading, cells were removed from the incubator and 10 μL 3× test compound was added. Cells were incubated for 30 minutes at room temperature in the dark to equilibrate plate temperature followed by Oleoyl LPA challenge at the 0.018 M. Compound antagonist activity was measured on a FLIPR Tetra (MDS). Calcium mobilization was monitored for 2 minutes and 10 μL Oleoyl LPA in HBSS/20 mM Hepes was added to the cells 5 seconds into the assay. Compound activity was analyzed using CBIS data analysis suite (ChemInnovation, CA). Percentage inhibition is calculated using the following formula:
% Inhibition=100%×(1−(mean RFU of test sample−mean RFU of vehicle control)/(mean RFU of LPA control−mean RFU of vehicle control)).

T1 sequence (Q92633 whole entry): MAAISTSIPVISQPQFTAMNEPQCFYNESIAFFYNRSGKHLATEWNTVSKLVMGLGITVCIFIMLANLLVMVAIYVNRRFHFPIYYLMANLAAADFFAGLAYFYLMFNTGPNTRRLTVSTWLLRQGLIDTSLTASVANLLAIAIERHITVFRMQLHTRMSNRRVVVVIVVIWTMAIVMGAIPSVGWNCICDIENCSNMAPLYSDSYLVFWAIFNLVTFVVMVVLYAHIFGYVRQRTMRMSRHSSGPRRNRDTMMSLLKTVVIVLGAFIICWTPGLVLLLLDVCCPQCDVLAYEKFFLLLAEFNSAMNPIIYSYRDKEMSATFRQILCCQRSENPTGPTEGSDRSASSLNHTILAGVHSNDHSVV

Structure (SMILES)	pIC50
COc1cc([C@@H](O)[C@H](Cc2ccc(CC(=O)O)c(OC)n2)OC2CCCC2)cc(OC)c1C [Compound 110a, 2-(6-((2S,3R)-2-(cyclopentyloxy)-3-(3,5-dimethoxy-4-methylphenyl)-3-hydroxypropyl)-2-methoxypyridin-3-yl)acetic acid]	5.78
COc1cc([C@@H](O)C(Cn2cc3cccc(C(=O)O)c3n2)OCCc2ccccc2)cc(OC)c1C (stereo in doubt) [Compound 105a, 2-((2R,3R)-3-(3,5-dimethoxy-4-methylphenyl)-3-hydroxy-2-phenethoxypropyl)-2H-indazole-7-carboxylic acid]	8.47
O=C(O)c1cccc2cn(C[C@H](OC3CCCC3)[C@H](O)c3ccc(C(F)(F)F)cc3)nc12 [Compound 124a]	5.24
N#Cc1cc([C@@H](O)[C@H](Cn2cc3cccc(C(=O)O)c3n2)OC2CCCC2)ccc1Cl [Compound 134]	< 5.00
COc1cc([C@@H](O)[C@H](Cn2cc3cccc(C(=O)O)c3n2)OC2CCCCC2)cc(OC)c1C [Compound 140]	7.93
CC#CCCO[C@@H](Cn1cc(CC(=O)O)c(C(=O)OC)c1)[C@H](O)c1cc(OC)c(C)c(OC)c1 [Compound 101a, 2-(1-((2S,3R)-3-(3,5-dimethoxy-4-methylphenyl)-3-hydroxy-2-(pent-3-yn-1-yloxy)propyl)-4-(methoxycarbonyl)-1H-pyrrol-3-yl)acetic acid]	6.67
COc1cc([C@@H](O)[C@H](Cc2nc(CC(=O)O)cs2)OC2Cc3ccccc3C2)cc(OC)c1C [Compound 129a, 2-(2-((2S,3R)-2-((2,3-dihydro-1H-inden-2-yl)oxy)-3-(3,5-dimethoxy-4-methylphenyl)-3-hydroxypropyl)thiazol-4-yl)acetic acid]	8.47
O=C(O)c1cccc2cn(C[C@H](OC3CCCC3)[C@H](O)c3ccc(C(F)F)cc3)nc12 [Compound 128a]	6.68
Cc1ccc([C@@H](O)[C@H](Cn2cc3cccc(C(=O)O)c3n2)OC2CCCC2)cn1 [Compound 127a]	< 5.00
COc1cc(C(O)C(Cn2ncc3cccc(C(=O)O)c32)OCCc2ccccc2)cc(OC)c1C (centres unmarked) [Compound 107, 1-(3-(3,5-dimethoxy-4-methylphenyl)-3-hydroxy-2-phenethoxypropyl)-1H-indazole-7-carboxylic acid]	< 5.00
COc1cc([C@@H](O)[C@H](Cn2cc3cccc(C(=O)O)c3n2)OC2CCCC2)ccc1C(F)F [Compound 121a]	7.95
